Test results: US8673851B2, “Synapse-specific proteins in glomeruli” (priority 2005, dated 2014)
Counter-ions that a name gives are not always drawn.

What was measured:
[1] = test system: podocytes; assay type: cell-based; settings: for Calcium content (Fluo4) / Intra-vesicle pH (Lysosensor green) / Membrane potential (RH-414 accumulation and discharge): during stimulated exocytosis
[2] = test system: podocytes; assay: [3H]-L-glutamate uptake; assay type: cell-based, mouse
Method: Podocytes were seeded at a density of 15,000 cells/well in 48-well plates, Two days later the culture medium was removed, the adherent washed two times with 0.5 mL/well of assay buffer (10 mM Tris-acetate, 128 mM NaCl, 10 mM D-glucose, 5 mM KCl, 1.5 mM NaH2PO4, 1 mM MgSO4, 1 mM CaCl2, pH 7.4) and then incubated for 15 min at 35° C. in assay buffer (0.3 mL/well) containing 100 nM [3H]-L-glutamate (Amersham, specific activity 47.0 Ci/mmol) with or without different concentrations of cold L-glutamate (from 1 to 1000 μM). Non-specific uptake was determined in parallel samples incubated in a Na+-free buffer (NaCl replaced by cholineCl). […]
In preliminary experiments it was established that the uptake of [3H]-Lglutamate was linear at least up to 15 min (not shown). Cells were then added with 0.3 mL/well of SDS and, after 2 hours on shaking plate, the well content was counted in 4 mL of Ultima Gold MV (Packard Bioscience, Groningen, the Netherlands) in an LKB 1214 Rackbeta liquid scintillation counter with a counting efficiency of about 60%.
Km and Vmax of L-glutamate uptake were determined by fitting the inhibition curve using the “homologous competitive binding curve” equation built into GrapPad Prism version 4.00 for Windows (GraphPad Software, San Diego Calif. USA). […]

[3] = test system: cultured mouse podocytes; assay: α-latrotoxin-stimulated glutamate release (enzymatic GDH/NADH assay); assay type: cell-based
Method: α-Latrotoxin stimulated glutamate release was detected by an enzymatic assay based on the following reaction that occurs in presence of glutamate dehydrogenase (GDH): Glutamate−+NAD++H20 ketoglutarate2−+NADH+[…]H+.
Briefly, to this purpose, the same numbers of podocytes obtained from normal mouse glomeruli were plated and grown to semiconfluence. Before measurements, cells were washed and re-suspended for 1 hour at 37° C. in DME incubation buffer (NaCl 109.5 mM, KCl 5.3 mM, glucose 5.5 mM with MgCl2 1 mM, Hepes 20 mM). The medium was further supplemented with GDH (Sigma 60 U/ml) and NAD+ (Sigma 1 mM), and incubated for 5 min. Then, α-latrotoxin was added at subnanomolar (0.5 nM) or nanomolar (2.5 nM) concentration and spectrophotometric increase of optical density (O.D.) due to increase of NADH was monitored at 340 nm. 200 nM Bafilomycin A1 (Sigma), a V-ATPase inhibitor that dissipates the electrochemical proton gradient necessary for glutamate uptake and storage into vescicles43, was added for 30 min at 37° C. to control cell plates before α-latrotoxin stimulation.

[4] = test system: primary mouse podocytes; assay: Phalloidin staining of the actin cytoskeleton; assay type: cell-based; settings: 24 h, 50 mM norketamine hydrochloride
Method: A Phalloidin staining of primary mouse podocytes after 24 h medium incubation. The actin cytoskeleton is intact. Rhodamine-phalloidin, 100×)
B Phalloidin staining of primary mouse podocytes after 24 h 50 mM norketamine hydrochloride incubation. […] (Rhodamine-phalloidin, 100×)
By immunohistochemistry, we have observed a variation of positivity, either increased or decreased, for other synaptic proteins, such as synapsin 1 (antibody from Abeam), and the ionotropic glutamate receptor NMDA-1 in a variety of human glomerulonephritis (FIG. 12).

[5] = test system: cultured podocytes; assay: Rab3A and glutamate staining of cultured podocytes before and after α-latrotoxin stimulus; assay type: cell-based, mouse; settings: after nanomolar α-latrotoxin treatment
Text: Panel b)-e): Rab3A (b, d) and glutamate (c, e) staining of cultured podocytes before (b, c) and after (d, e) nanomolar α-latrotoxin stimulus. Disappearance of most labeling from the processes of podocytes is evident after stimulation (indirect immunofluorescence, 450×).

[6] = test system: primary podocytes; assay: Synaptic vesicle recycling with styryl dye FM1-43; assay type: cell-based
Text: The recycling of synaptic vesicles in nerve terminals is a complex multistep process, whose investigation has been made feasible by the use of styryl dyes. These molecules, that reversibly insert into the surface of lipid membranes, have no fluorescent properties in aqueous solution, but become intensely fluorescent upon membrane binding, allowing a labelling of recycling synaptic vesicles that is easily detectable by fluorescence microscopy.

[7] = test system: cell membranes; settings: higher concentrations (>10 nM); cited from earlier work
[8] = test system: primary podocyte; assay: BDNF incubation, process formation (bright-field); assay type: cell-based; settings: 250 ng/ml, 20 hour incubation
Method: FIG. 18 • A) Bright-field image (200×) showing the in vivo appearance of a primary podocyte before BDNF treatment. • B) The same field is taken after 20 h of BDNF incubation. The cell has produced a number of processes starting from its body.
We have also observed that podocytes are sensitive to 250 ng/ml BDNF (Brain Derived Neurotrophic Factor) (Sigma): after 20 hour incubation with BDNF, in fact, the number of processes extending from the podocyte cell body are increased (FIG. 18).

## [Cl-].[K+] [KCl]
[1]; 60 mM
  Induction of stimulated exocytosis: can be induced
[1]
  Calcium content (Fluo4): rapid variation in calcium content
  Intra-vesicle pH (Lysosensor green): variation of intra-vesicle pH
  Membrane potential (RH-414 accumulation and discharge): rapid variation of the membrane potential

## N[C@@H](CCC(=O)O)C(=O)O [L-glutamate]
[2]; Na+-dependent uptake, 100 nM [3H]-L-glutamate, 15 min at 35° C.
  Km: 83 µM
[2]; estimated, 15,000 cells/well seeded
  Vmax of L-glutamate uptake: about 2 pmol/min/well

## CO/C1=C\C(C)=C\[C@@H](C)[C@@H](O)[C@@H](C)C/C(C)=C/C=C/[C@H](OC)[C@@H]([C@@H](C)[C@@H](O)[C@H](C)[C@@]2(O)C[C@@H](O)[C@H](C)[C@@H](C(C)C)O2)OC1=O [bafilomycin, Bafilomycin A1]
[3]; bafilomycin added 30 min before latrotoxin (0.5 nM or 2.5 nM α-latrotoxin), 200 nM Bafilomycin A1
  Glutamate release after α-latrotoxin: Absence of glutamate release

## NC1(c2ccccc2Cl)CCCCC1=O (centres unmarked) [norketamine hydrochloride]
[4]
  Actin cytoskeleton (rhodamine-phalloidin): profound alteration of the actin cytoskeleton

## tetanus toxin
[1]
  Block of exocytotic events: can be blocked

## α-latrotoxin
[3]; 0.5 nM α-latrotoxin
  Glutamate secretion (generation of NADH, optical density at 340 nm): continuous exocytosis
[3]; 2.5 nM α-latrotoxin
  Glutamate secretion (generation of NADH, optical density at 340 nm): burst of neurotransmitter release, followed by steady state
[5]
  Glutamate labeling of cell processes by immunohistochemistry: disappearance of most glutamate from cell processes
  Rab3A distribution by immunohistochemistry: redistribution of Rab3A
[1]
  Calcium content (Fluo4): rapid variation in calcium content
  Intra-vesicle pH (Lysosensor green): variation of intra-vesicle pH
  Membrane potential (RH-414 accumulation and discharge): rapid variation of the membrane potential
[6]; a few seconds after a first α-latrotoxin stimulus
  FM1-43 dye uptake: accumulate the styryl dye FM1-43
[6]; after a second α-latrotoxin stimulation
  FM1-43 dye release: almost completely discharge the dye
[7]
  Damage to cell membranes: highly damaging for cell membranes

B1: BDNF: Brain Derived Neurotrophic Factor (Sigma) (protein, UniProt P23560 19-247, looked up)
Neurotrophic factor BDNF …: APMKEANIRGQGGLAYPGVRTHGTLESVNGPKAGSRGLTSLADTFEHVIEELLDEDQKVRPNEENNKDADLYTSRVMLSSQVPLEPPLLFLLEEYKNYLDAANMSMRVRRHSDPARRGELSVCDSISEWVTAADKKTAVDMSGGTVTVLEKVPVSKGQLKQYFYETKCNPMGYTKEGCRGIDKRHWNSQCRTTQSYVRALTMDSKKRIGWRFIRIDTSCVCTLTIKRGR
[8]
  Number of processes extending from the podocyte cell body: increased
